What was measured:
[1] = test system: MV4;11 cell line; assay: Cell growth inhibition assay; format: cell-based, human
[2] = target: T1, menin protein (Homo sapiens, UniProt O00255); assay: Fluorescence polarization; conditions: for Times more potent than MIV-6 in binding to menin: FP binding assay
T1 sequence (O00255 1-610): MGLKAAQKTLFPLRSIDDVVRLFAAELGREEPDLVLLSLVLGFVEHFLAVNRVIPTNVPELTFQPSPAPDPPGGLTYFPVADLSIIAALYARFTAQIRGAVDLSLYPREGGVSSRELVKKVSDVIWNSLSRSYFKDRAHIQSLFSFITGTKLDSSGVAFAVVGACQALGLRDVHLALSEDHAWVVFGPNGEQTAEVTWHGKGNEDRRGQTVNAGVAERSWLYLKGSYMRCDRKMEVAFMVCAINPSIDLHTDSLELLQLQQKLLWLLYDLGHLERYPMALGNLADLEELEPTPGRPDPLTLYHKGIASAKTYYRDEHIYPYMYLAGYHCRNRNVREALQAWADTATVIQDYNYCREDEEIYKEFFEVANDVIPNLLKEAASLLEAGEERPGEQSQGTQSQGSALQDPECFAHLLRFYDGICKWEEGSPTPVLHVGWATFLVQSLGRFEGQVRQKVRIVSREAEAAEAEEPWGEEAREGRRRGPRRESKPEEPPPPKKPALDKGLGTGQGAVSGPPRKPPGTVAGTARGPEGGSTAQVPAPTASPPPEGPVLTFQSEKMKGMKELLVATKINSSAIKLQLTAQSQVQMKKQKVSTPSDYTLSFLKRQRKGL

[3] = Solubility comparison; format: physicochemical; conditions: compared with 20

**Q.** For `CNC(=O)O[C@H]1CCC[C@@H]1[C@]1(C2CCN(CC3CN(c4ccc(S(=O)(=O)c5ccncc5)cc4)C3)CC2)CN(C)Cc2ccccc21` (mixture of isomers) [Compound 42, rac-(1S,2R)-2-((S)-2-Methyl-4-(1-((1-(4-(pyridin-4-ylsulfonyl)phenyl)azetidin-3-yl)methyl)piperidin-4-yl)-1,2,3,4-tetrahydroisoquinolin-4-yl)cyclopentyl methylcarbamate], which “Times more potent than MIV-6 in cell growth inhibition” value ([1]; MV4;11 (M-89: MV4;11 and MOLM-13)) is on record?
**A.** The value was greater than 100 times.

**Q.** With `CNC(=O)O[C@H]1CCC[C@@H]1[C@](C#N)(c1ccccc1)C1CCN(CC2CN(c3ccc(C#N)cc3)C2)CC1` (mixture of isomers) [Compound 39, rac-(1S,2R)-2-((S)-Cyano(1-((1-(4-cyanophenyl)azetidin-3-yl)methyl)piperidin-4-yl)-(phenyl)methyl)cyclopentyl methylcarbamate] as the compound, how does the “Factor of enhancement of cellular activity in MV4;11 relative to 31” value [1] read?
**A.** Its value is greater than 50.

**Q.** What about the “Times more potent than 31 in binding to menin” value [2] of the same compound?
**A.** The value was greater than 100 times.

**Q.** For `O=S(=O)(c1ccncc1)c1ccc(N2CC(CN3CCC(C4(C5CCCC5)CNCc5ccccc54)CC3)C2)cc1` (stereo not drawn) [Compound 22, 4-Cyclopentyl-4-(1-((1-(4-(pyridin-4-ylsulfonyl)phenyl)azetidin-3-yl)methyl)piperidin-4-yl)-1,2,3,4-tetrahydroisoquinoline], which “Times more potent than 21 in binding to menin” value [2] is on record?
**A.** Its value is 2-3 times.

**Q.** For `N#Cc1ccc(OCCCN2CCC(C3(C4CCCC4)NCCc4ccccc43)CC2)cc1` (stereo not drawn) [Compound 6, 4-(3-(4-(1-Cyclopentyl-1,2,3,4-tetrahydroisoquinolin-1-yl)piperidin-1-yl)propoxy)-benzonitrile], which “Times more potent than MIV-6 in binding to menin” value [2] is on record?
**A.** The value was 2-3 times.

**Q.** With `N#Cc1ccc(N2CC(CN3CCC(C(C#N)(c4ccccc4)C4CCCC4)CC3)C2)cc1` (racemic) [Compound 31, rac-4-(3-((4-(cyano(cyclopentyl)(phenyl)methyl)piperidin-1-yl)methyl)azetidin-1-yl)benzonitrile] as the compound, how does the “Times weaker than MIV-6 in binding to menin” value [2] read?
**A.** Its value is 16 times.

**Q.** Which “Times more potent than 6 in binding to menin” value [2] does the source give for `N#Cc1ccc(N2CC(CN3CCC(C4(C5CCCC5)NCCc5ccccc54)CC3)C2)cc1` (stereo not drawn) [Compound 12, 4-(3-((4-(1-Cyclopentyl-1,2,3,4-tetrahydroisoquinolin-1-yl)piperidin-1-yl)methyl)azetidin-1-yl)benzonitrile] here?
**A.** Its value is 2 times.

**Q.** What about the “Times more potent than MIV-6 in binding to menin” value [2] of the same compound?
**A.** The value was 5 times.

**Q.** Which “Fold loss in binding affinity to menin relative to 37” value [2] does the source give for `CCCC(=O)O[C@H]1CCC[C@@H]1[C@](C#N)(c1ccccc1)C1CCN(CC2CN(c3ccc(C#N)cc3)C2)CC1` (mixture of isomers) [Compound 38, rac-(1S,2R)-2-((S)-Cyano(1-((1-(4-cyanophenyl)azetidin-3-yl)methyl)piperidin-4-yl)-(phenyl)methyl)cyclopentyl butyrate] here?
**A.** The value was 30 fold.

**Q.** Which “Times less potent than 6 in binding to menin” value [2] does the source give for `N#Cc1ccc(N2CCC(N3CCC(C4(C5CCCC5)NCCc5ccccc54)CC3)CC2)cc1` (stereo not drawn) [Compound 9, 4-(4-(1-Cyclopentyl-1,2,3,4-tetrahydroisoquinolin-1-yl)-[1,4'-bipiperidin]-1'-yl)benzonitrile] here?
**A.** The value was “approximately 10 times”.

**Q.** Which IC50 ([1]; Homo sapiens, MV4-11, read-out: IC50 cell growth inhibition MV4;11) does the source give for `CN1Cc2ccccc2C(C2CCCC2)(C2CCN(CC3CN(c4ccc(S(=O)(=O)c5ccncc5)cc4)C3)CC2)C1` (stereo not drawn) [Compound 23, 4-Cyclopentyl-2-methyl-4-(1-((1-(4-(pyridin-4-ylsulfonyl)phenyl)azetidin-3-yl)methyl)piperidin-4-yl)-1,2,3,4-tetrahydroisoquinoline] here?
**A.** The IC50 was 400 to 1000 nM.

**Q.** With `CS(=O)(=O)c1ccc(N2CC(CN3CCC(C4(C5CCCC5)NCCc5ccccc54)CC3)C2)cc1` (stereo not drawn) [Compound 13, 1-Cyclopentyl-1-(1-((1-(4-(methylsulfonyl)phenyl)azetidin-3-yl)methyl)piperidin-4-yl)-1,2,3,4-tetrahydroisoquinoline] as the compound, how does the “Times less potent than 12 in binding to menin” value [2] read?
**A.** The value was 4 times.

**Q.** For `CC(C)S(=O)(=O)c1ccc(N2CC(CN3CCC(C4(C5CCCC5)NCCc5ccccc54)CC3)C2)cc1` (stereo not drawn) [Compound 15, 1-Cyclopentyl-1-(1-((1-(4-(isopropylsulfonyl)phenyl)azetidin-3-yl)methyl)piperidin-4-yl)-1,2,3,4-tetrahydroisoquinoline], which “Times less potent than 14 in binding to menin” value [2] is on record?
**A.** Its value is 2 times.

**Q.** What about the “Times more potent than 13 in binding to menin” value [2] of the same compound?
**A.** The value was 2 times.

**Q.** Which “Times less potent than 6 in binding to menin” value [2] does the source give for `N#Cc1ccc(N2CCCC(CN3CCC(C4(C5CCCC5)NCCc5ccccc54)CC3)C2)cc1` (stereo not drawn) [Compound 10, 4-(3-((4-(1-Cyclopentyl-1,2,3,4-tetrahydroisoquinolin-1-yl)piperidin-1-yl)methyl)piperidin-1-yl)benzonitrile] here?
**A.** The value was roughly 100 times.

**Q.** For `O=S(=O)(c1ccc(N2CC(CN3CCC(C4(C5CCCC5)NCCc5ccccc54)CC3)C2)cc1)C1CC1` (stereo not drawn) [Compound 16, 1-Cyclopentyl-1-(1-((1-(4-(cyclopropylsulfonyl)phenyl)azetidin-3-yl)methyl)piperidin-4-yl)-1,2,3,4-tetrahydroisoquinoline], which “Times more potent than 15 in binding to menin” value [2] is on record?
**A.** Its value is 2-3 times.

**Q.** Which “Times more potent than 31 in binding to menin” value [2] does the source give for `CC(=O)O[C@H]1CCC[C@@H]1[C@](C#N)(c1ccccc1)C1CCN(CC2CN(c3ccc(C#N)cc3)C2)CC1` (mixture of isomers) [Compound 35, rac-(1S,2R)-2-((S)-Cyano(1-((1-(4-cyanophenyl)azetidin-3-yl)methyl)piperidin-4-yl)(phenyl)methyl)cyclopentyl acetate] here?
**A.** Its value is 80 times.

**Q.** With `O=S(=O)(c1ccncc1)c1ccc(N2CC(CN3CCC(C4(C5CCCC5)NCCc5ccccc54)CC3)C2)cc1` (stereo not drawn) [Compound 21, 1-Cyclopentyl-1-(1-((1-(4-(pyridin-4-ylsulfonyl)phenyl)azetidin-3-yl)methyl)piperidin-4-yl)-1,2,3,4-tetrahydroisoquinoline] as the compound, how does the Relative solubility [3] read?
**A.** Its Relative solubility is “more soluble than 20”.
